Source: publication PMC6656724 (Communications Biology, 2019)
Like-named read-outs stand apart in the source and are kept apart here.

Experiments:
[1] = molecular target: T1, Pseudomonas fluorescens KMO (PfKMO) (Pseudomonas fluorescens, UniProt Q84HF5, C252S/C461S); assay: biochemical
T1 construct: made in house; host or cells: E. coli BL21 (DE3)
Description: (§1) A combination of ligand- and structural-based virtual screening approaches (see supporting information for details) was used to identify an initial library of >1000 compounds that may be suitable as potential KMO inhibitors. These compounds were screened for inhibition of Pseudomonas fluorescens KMO (PfKMO) and Homo sapiens KMO (HsKMO) using high-throughput assays by monitoring the time-dependent oxidation of NADPH at 340 nm[23].
(§2) Small-molecule compounds were supplied by Biofocus (Charles River Laboratories International Inc., MA, USA), which were identified in silico as potential inhibitors (further details are described in the Supplementary Methods). Initial inhibition assays were performed against Pseudomonas fluorescens KMO (PfKMO) and Homo sapiens KMO (HsKMO) by monitoring the time-dependent absorbance change of NADPH at 340 nm. Purified KMO protein (200 nM) was incubated in 100 µL reaction buffer (20 mM potassium phosphate pH 8.0, 7 mM 2-mercaptoethanol) containing 100 μM NADPH, 100 μM L-Kyn and 20 μM potential inhibitors in 96-well plates. […] The inhibitors identified in the initial screens were validated and re-assayed individually in a 1 cm path-length quartz micro cuvette. […] Suppliers for target inhibitor compounds are listed in Supplementary Table 11.
(§3) Supplementary Figure 1. Examples of inhibition data used to generate IC50 values for selected KMO inhibitors. Fixed concentration of L -KYN (200 µM) and NADPH (100µM) were added into reaction buffer (HsKMO: 20mM potassium phosphate pH 8.0, 7 mM 2-mercaptoethanol; PfKMO: 20 mM HEPES, 10mM sodium acetate, pH 7.5, 2mM DTT). The reaction was initiated by the addition of KMO enzyme (HsKMO: 0.5µM; PfKMO: 0.1 µM). KMO activity was measured in the presence of a range of inhibitor concentrations. […]
(§4) 3.5 Steady-state enzymatic assays.
(§5) Initial screening assays and determination of IC50 values for each potential inhibitor compound were carried out using either 0.1 µM PfKMO or 0.5 µM HsKMO at fixed […]
(§6) (HsKMO: 20 mM potassium phosphate pH 8.0, 7 mM 2-mercaptoethanol; PfKMO:
(§7) 20 mM HEPES, 10 mM sodium acetate, pH 7.5, 2 mM DTT). KMO activity was measured in the presence of a range of inhibitor concentrations by monitoring the […]
consumption of NADPH at 340 nm upon addition of enzyme via a Cary 50 UV-Vis spectrophotometer (Agilent Technologies). Rates were determined from linear regression fits to the initial linear portion of the curves. All measurements were performed in triplicate. The IC50 values for inhibitors were obtained by plotting the percentage inhibition versus the inhibitor concentration and fitting to the Morrison equation16 (equation 1) using Origin 9.0 Software (OriginLab, Northampton, MA). […]

Homo sapiens KMO (HsKMO) = molecular target: T2, Homo sapiens KMO (HsKMO) (Homo sapiens, UniProt O15229); assay: KMO inhibition assay, NADPH oxidation at 340 nm (HsKMO); format: biochemical
T2 construct: GST; made in house
T2 sequence (O15229 whole entry): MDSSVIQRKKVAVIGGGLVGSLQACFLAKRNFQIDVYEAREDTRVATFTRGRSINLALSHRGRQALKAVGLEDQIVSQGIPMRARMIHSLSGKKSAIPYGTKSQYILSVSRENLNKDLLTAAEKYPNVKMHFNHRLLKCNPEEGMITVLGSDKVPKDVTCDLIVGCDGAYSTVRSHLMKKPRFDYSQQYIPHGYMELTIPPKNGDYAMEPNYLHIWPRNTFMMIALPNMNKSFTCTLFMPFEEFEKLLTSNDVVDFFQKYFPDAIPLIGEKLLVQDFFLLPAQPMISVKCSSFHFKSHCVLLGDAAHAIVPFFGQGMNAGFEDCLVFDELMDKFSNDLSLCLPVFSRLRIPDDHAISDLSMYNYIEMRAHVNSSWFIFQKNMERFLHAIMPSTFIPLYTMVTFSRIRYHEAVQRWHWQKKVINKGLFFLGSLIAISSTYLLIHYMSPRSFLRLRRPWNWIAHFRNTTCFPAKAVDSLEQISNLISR
Description: as §1, §2
Supplementary Figure 1. Examples of inhibition data used to generate IC50 values for selected KMO inhibitors.
as §3, with “NADPH” for “Supplementary Figure 1. Examples of inhibition data used to generate IC50 values for selected KMO inhibitors. Fixed concentration of L -KYN (200 µM) and NADPH”
as §4, §5, §6, §7
consumption of NADPH at 340 nm upon addition of enzyme via a Cary 50 UV-Vis spectrophotometer (Agilent Technologies). Rates were determined from linear regression fits to the initial linear portion of the curves. All measurements were performed in triplicate. The IC50 values for inhibitors were obtained by plotting the percentage inhibition versus the inhibitor concentration and fitting to the Morrison equation16 (equation 1) using Origin 9.0 Software (OriginLab, Northampton, MA).
E + I + K!"" − E + I + K!"" ! − 4[E][I] where v0 is the enzyme activity without inhibitor, vi is the enzyme activity with ligand

T1 sequence (Q84HF5 whole entry C252S/C461S): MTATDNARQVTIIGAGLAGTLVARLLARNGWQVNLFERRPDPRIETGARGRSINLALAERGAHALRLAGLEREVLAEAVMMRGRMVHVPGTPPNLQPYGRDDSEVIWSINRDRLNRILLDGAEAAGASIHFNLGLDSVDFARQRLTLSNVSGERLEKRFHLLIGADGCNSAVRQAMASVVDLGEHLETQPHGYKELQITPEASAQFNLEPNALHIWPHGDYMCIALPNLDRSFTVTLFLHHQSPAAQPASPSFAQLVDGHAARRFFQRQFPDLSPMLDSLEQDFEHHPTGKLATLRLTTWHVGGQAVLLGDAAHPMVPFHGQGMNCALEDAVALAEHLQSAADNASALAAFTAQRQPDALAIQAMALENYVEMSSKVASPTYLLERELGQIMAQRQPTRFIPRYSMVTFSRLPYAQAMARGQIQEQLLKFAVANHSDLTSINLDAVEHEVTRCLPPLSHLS

| Compound | IC50 [1] [µM] | IC50 (Homo sapiens KMO (HsKMO)) [µM] | IC50 ([1]; read-out: IC50 PfKMO) [µM] |
| --- | --- | --- | --- |
| O=C(O)c1ccc(-c2ccc(Br)c(Cl)c2)o1 [compound 19, 5-(4-bromo-3-chlorophenyl) furan-2-carboxylic acid] | 0.7 ± 0.01 | 54.2 | – |
| O=C(O)c1ccc(-c2ccccc2C(F)(F)F)o1 [compound 11, 5-[2-(trifluoromethyl)phenyl]furan-2-carboxylic acid] | 72.1 ± 1.9 | 144 | – |
| CNC(=O)CN1C(=O)COc2cc(C)c(Cl)c(C)c21 [1f] | > 300 | > 300 | – |
| Cc1cc2c(c(C)c1Cl)N(CC(=O)N(C)C)C(=O)CO2 [1e] | > 300 | ~300 | – |
| COc1ccc(-c2cn(CC(=O)O)c(=O)cn2)cc1 [compound 15, 2-(5-(4-methoxyphenyl)-2-oxopyrazin-1(2H)-yl)acetic acid] | – | 54.2 | 6.3 ± 0.6 |
| CC(C)n1c(CCC(=O)O)ccc1-c1ccc(Cl)cc1 [compound 14, 3-[5-(4-chlorophenyl)-1-(methylethyl)pyrrol-2-yl]propanoic acid] | – | 38.8 | – |
| O=C(O)c1ccc(-c2ccc(F)c(Cl)c2)o1 [compound 18, 5-(3-chloro-4-fluorophenyl) furan-2-carboxylic acid] | 2.4 ± 0.3 | 193 | – |
| O=C(O)c1ccc(-c2cccc(Cl)c2)o1 [compound 17, 5-(3-chlorophenyl) furan-2-carboxylic acid] | 15.9 ± 0.8 | 442 | – |
| O=C(O)CCc1ccc(-c2cccs2)n1-c1ccc(Br)cc1 [compound 2, 3-[1-(4-bromophenyl)-5-(2-thienyl)-1H-pyrrol-2-yl] propanoic acid] | 130 ± 18.7 | 1.5 | – |
